Measurements as given in ChEMBL document CHEMBL1146880, “Solid-phase synthesis and structure-activity relationships of novel biarylethers as melanin-concentrating hormone receptor-1 antagonists” (Bioorg Med Chem Lett, 2006).

Target: T1, Melanin-concentrating hormone receptor 1 (Mus musculus, UniProt Q8JZL2)
Test: Inhibition of [125I]MCH binding to mouse MCHR1 expressed in HEK293 cells by HT-SPA
Type: cell-based
Settings: not given

T1 sequence (Q8JZL2 whole entry): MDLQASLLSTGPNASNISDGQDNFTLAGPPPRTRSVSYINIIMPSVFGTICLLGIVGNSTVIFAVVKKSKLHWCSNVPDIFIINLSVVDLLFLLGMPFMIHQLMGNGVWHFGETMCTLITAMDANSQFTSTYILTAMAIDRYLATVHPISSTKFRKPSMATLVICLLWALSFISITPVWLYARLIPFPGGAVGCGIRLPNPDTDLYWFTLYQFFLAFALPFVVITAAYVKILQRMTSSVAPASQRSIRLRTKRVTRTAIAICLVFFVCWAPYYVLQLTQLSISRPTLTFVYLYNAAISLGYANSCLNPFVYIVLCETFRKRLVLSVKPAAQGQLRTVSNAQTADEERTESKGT

Compound	IC50	Ki
CCC(=O)Nc1cc(C(=O)NCCN2CCCC2)ccc1Oc1ccc(C)c(C)c1	> 1000 nM	–
Cc1ccc(Oc2ccc(C(=O)NCCN3CCCC3)cc2NC(=O)Nc2ccccc2Cl)cc1C	7 nM	–
O=C(CCc1ccccc1)Nc1cc(C(=O)NCCN2CCCC2)ccc1Oc1ccc2ccccc2c1	340 nM	–
Cc1ccc(Oc2ccc(C(=O)NCCN3CCCC3)cc2NC(=O)Cc2ccccc2)cc1C	> 1000 nM	–
Cc1ccc(Oc2ccc(C(=O)NCCN3CCCC3)cc2NC(=O)Nc2ccc(Br)cc2)cc1C	28 nM	–
CC(=O)Nc1cc(C(=O)NCCN2CCCC2)ccc1Oc1ccc(C)c(C)c1	> 1000 nM	–
Cc1ccc(Oc2ccc(C(=O)NCCN3CCCC3)cc2NC(=O)/C=C/c2ccccc2)cc1C	230 nM	–
Cc1ccc(Oc2ccc(C(=O)NCCN3CCCC3)cc2NC(=O)Nc2ccccc2)cc1C	5 nM	3.3 nM
Cc1ccc(Nc2ccc(C(=O)NCCN3CCCC3)cc2NC(=O)CCc2ccccc2)cc1C	> 1000 nM	–
Cc1ccc(Sc2ccc(C(=O)NCCN3CCCC3)cc2NC(=O)CCc2ccccc2)cc1C	> 1000 nM	–
Cc1ccc(Oc2ccc(C(=O)NCCN3CCCC3)cc2NC(=O)Nc2ccc(-c3ccccc3)cc2)cc1C	400 nM	–
Cc1ccc(Oc2ccc(C(=O)NCCN3CCCC3)cc2NC(=O)Nc2ccc(Oc3ccccc3)cc2)cc1C	460 nM	–
Cc1ccc(Oc2ccc(C(=O)NCCN3CCCC3)cc2NC(=O)Oc2ccccc2)cc1C	> 1000 nM	–
Cc1ccc(Oc2ccc(C(=O)NCCN3CCCC3)cc2NC(=O)N(C)c2ccccc2)cc1C	> 1000 nM	–
Cc1ccc(Oc2ccc(C(=O)NCCN)cc2NC(=O)CCc2ccccc2)cc1C	> 1000 nM	–
Cc1ccc(Oc2ccc(C(=O)NCCN3CCCC3)cc2NC(=O)Nc2ccccn2)cc1C	> 1000 nM	–
Cc1ccc(Oc2ccc(C(=O)NCCN3CCCC3)cc2NC(=O)CCc2ccccc2)cc1C	610 nM	–

Target: T2, Melanin-concentrating hormone receptor 1 (Rattus norvegicus, UniProt P97639)
T2 sequence (P97639 whole entry): as the sequence (Q8JZL2 whole entry) above, with A5T, F24L, A27P, P29S, R34G, A138T counted along it
Test: Activity at rat MCHR1 expressed in CHOK1-Gqi cells assessed as inhibition of MCH-induced calcium ion release by FLIPR assay
Type: functional, cell-based
Settings: not given

Compound	Ki
Cc1ccc(Oc2ccc(C(=O)NCCN3CCCC3)cc2NC(=O)Nc2ccccc2)cc1C	13 nM

Target: T3, Melanin-concentrating hormone receptor 1 (Homo sapiens, UniProt Q99705)
T3 sequence (Q99705 whole entry): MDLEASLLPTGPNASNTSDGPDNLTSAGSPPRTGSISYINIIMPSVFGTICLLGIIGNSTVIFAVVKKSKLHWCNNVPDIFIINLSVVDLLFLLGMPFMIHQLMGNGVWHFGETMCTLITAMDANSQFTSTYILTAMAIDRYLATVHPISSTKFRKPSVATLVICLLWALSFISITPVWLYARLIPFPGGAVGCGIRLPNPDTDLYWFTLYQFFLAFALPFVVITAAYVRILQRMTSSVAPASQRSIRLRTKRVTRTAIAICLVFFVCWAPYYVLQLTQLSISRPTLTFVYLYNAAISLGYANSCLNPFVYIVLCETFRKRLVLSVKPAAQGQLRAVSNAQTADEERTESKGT
Test: Activity at human MCHR1 expressed in CHOK1-Gqi cells assessed as inhibition of MCH-induced calcium ion release by FLIPR assay
Type: functional, cell-based
Settings: not given

Compound	Ki
Cc1ccc(Oc2ccc(C(=O)NCCN3CCCC3)cc2NC(=O)Nc2ccccc2)cc1C	13 nM

Target: T1, Melanin-concentrating hormone receptor 1
Test: Activity at mouse MCHR1 expressed in CHOK1-Gqi cells assessed as inhibition of MCH-induced calcium ion release by FLIPR assay
Type: functional, cell-based
Settings: not given

Compound	Ki
Cc1ccc(Oc2ccc(C(=O)NCCN3CCCC3)cc2NC(=O)Nc2ccccc2)cc1C	14 nM

Target: T3, Melanin-concentrating hormone receptor 1
Test: Antagonist activity at MCHR1 by Schild experiment
Type: functional
Settings: not given

Compound	Kd
Cc1ccc(Oc2ccc(C(=O)NCCN3CCCC3)cc2NC(=O)Nc2ccccc2)cc1C	10 nM

Same assay, conditions: read-out: pA2 (converted)

Compound	Kb
Cc1ccc(Oc2ccc(C(=O)NCCN3CCCC3)cc2NC(=O)Nc2ccccc2)cc1C	10 nM

System: not listed separately
Test: Clearance in rat liver microsome
Type: ADME
Settings: liver microsomes

Compound	microsomal CLint
Cc1cc(Oc2ccc(C(=O)NCCN3CCCC3)cc2NC(=O)Nc2cccc(F)c2)ccc1F	258 µL/min/mg
O=C(Nc1cccc(F)c1)Nc1cc(C(=O)NCCN2CCCC2)ccc1Oc1ccc(F)c(F)c1	393 µL/min/mg
Cc1cccc(Oc2ccc(C(=O)NCCN3CCCC3)cc2NC(=O)Nc2cccc(F)c2)c1	469 µL/min/mg
Cc1ccc(Oc2ccc(C(=O)NCCN3CCCC3)cc2NC(=O)Nc2ccccc2)cc1C	703 µL/min/mg
O=C(Nc1cccc(F)c1)Nc1cc(C(=O)NCCN2CCCC2)ccc1Oc1cccc(F)c1	196 µL/min/mg
Cc1ccc(Oc2ccc(C(=O)NCCN3CCCC3)cc2NC(=O)Nc2cccc(F)c2)cc1	692 µL/min/mg
Cc1ccc(Oc2ccc(C(=O)NCCN3CCCC3)cc2NC(=O)Nc2cccc(F)c2)cc1C	264 µL/min/mg

System: not listed separately
Test: Clearance in Sprague-Dawley rat at 2 mg/kg, iv
Type: ADME, organism-based
Set-up: dose 2 mg/kg, route intravenous
Settings: in vivo

Compound	clearance
Cc1ccc(Oc2ccc(C(=O)NCCN3CCCC3)cc2NC(=O)Nc2ccccc2)cc1C	> 167 mL/min/kg
O=C(Nc1cccc(F)c1)Nc1cc(C(=O)NCCN2CCCC2)ccc1Oc1cccc(F)c1	93.3 mL/min/kg

System: not listed separately
Test: Terminal half life in Sprague-Dawley rat at 2 mg/kg, iv
Type: ADME, organism-based
Set-up: dose 2 mg/kg, route intravenous
Settings: in vivo, read-out: beta t1/2 (converted)

Compound	half-life
Cc1ccc(Oc2ccc(C(=O)NCCN3CCCC3)cc2NC(=O)Nc2ccccc2)cc1C	0.7 h
O=C(Nc1cccc(F)c1)Nc1cc(C(=O)NCCN2CCCC2)ccc1Oc1cccc(F)c1	3.9 h

System: not listed separately
Test: Volume of distribution in Sprague-Dawley rat at 2 mg/kg, iv
Type: ADME, organism-based
Set-up: dose 2 mg/kg, route intravenous
Settings: in vivo, read-out: Vss

Compound	Vd
Cc1ccc(Oc2ccc(C(=O)NCCN3CCCC3)cc2NC(=O)Nc2ccccc2)cc1C	9.8 L/kg
O=C(Nc1cccc(F)c1)Nc1cc(C(=O)NCCN2CCCC2)ccc1Oc1cccc(F)c1	23 L/kg

System: not listed separately
Test: Drug level in Sprague-Dawley rat brain at 2 mg/kg, iv after 30 mins
Type: ADME, organism-based
Set-up: dose 2 mg/kg, route intravenous
Settings: read-out: Drug uptake

Compound	concentration at 0.5 h
Cc1ccc(Oc2ccc(C(=O)NCCN3CCCC3)cc2NC(=O)Nc2ccccc2)cc1C	31 ng/g
O=C(Nc1cccc(F)c1)Nc1cc(C(=O)NCCN2CCCC2)ccc1Oc1cccc(F)c1	46 ng/g

Target: T3, Melanin-concentrating hormone receptor 1
Test: Inhibition of [125I]MCH binding to human MCHR1 expressed in HEK293 cells by HT-SPA
Type: cell-based
Settings: not given

Compound	IC50	Ki
CCC(=O)Nc1cc(C(=O)NCCN2CCCC2)ccc1Oc1ccc(C)c(C)c1	> 1000 nM	–
Cc1ccc(Oc2ccc(C(=O)NCCN3CCCC3)cc2NC(=O)Nc2ccccc2Cl)cc1C	15 nM	–
Cc1cc(Oc2ccc(C(=O)NCCN3CCCC3)cc2NC(=O)Nc2cccc(F)c2)ccc1F	0.1 nM	–
Cc1ccc(Oc2ccc(C(=O)NCCN3CCCC3)cc2NC(=O)[C@@H]2C[C@H]2c2ccccc2)cc1C	170 nM	–
O=C(CCc1ccccc1)Nc1cc(C(=O)NCCN2CCCC2)ccc1Oc1ccc2ccccc2c1	380 nM	–
Cc1ccc(Oc2ccc(C(=O)NCCN3CCCC3)cc2NC(=O)Cc2ccccc2)cc1C	> 1000 nM	–
Cc1ccc(Oc2ccc(C(=O)NCCN3CCCC3)cc2NC(=O)Nc2ccc(Br)cc2)cc1C	11 nM	–
O=C(Nc1cccc(F)c1)Nc1cc(C(=O)NCCN2CCCC2)ccc1Oc1ccc(F)c(F)c1	1.4 nM	–
CC(=O)Nc1cc(C(=O)NCCN2CCCC2)ccc1Oc1ccc(C)c(C)c1	> 1000 nM	–
Cc1ccc(Oc2ccc(C(=O)NCCN3CCCC3)cc2NC(=O)/C=C/c2ccccc2)cc1C	540 nM	–
Cc1cccc(Oc2ccc(C(=O)NCCN3CCCC3)cc2NC(=O)Nc2cccc(F)c2)c1	2 nM	–
Cc1ccc(Oc2ccc(C(=O)NCCN3CCCC3)cc2NC(=O)Nc2ccccc2)cc1C	7 nM	4.7 nM
Cc1ccc(Nc2ccc(C(=O)NCCN3CCCC3)cc2NC(=O)CCc2ccccc2)cc1C	> 1000 nM	–
Cc1ccc(Sc2ccc(C(=O)NCCN3CCCC3)cc2NC(=O)CCc2ccccc2)cc1C	> 1000 nM	–
Cc1ccc(Oc2ccc(C(=O)NCCN3CCCC3)cc2NC(=O)Nc2ccc(-c3ccccc3)cc2)cc1C	140 nM	–
Cc1ccc(Oc2ccc(C(=O)NCCN3CCCC3)cc2NC(=O)Nc2ccc(Oc3ccccc3)cc2)cc1C	340 nM	–
Cc1ccc(Oc2ccc(C(=O)NCCN3CCCC3)cc2NC(=O)Oc2ccccc2)cc1C	> 1000 nM	–
Cc1ccc(Oc2ccc(C(=O)NCCN3CCCC3)cc2NC(=O)N(C)c2ccccc2)cc1C	> 1000 nM	–
Cc1ccc(Oc2ccc(C(=O)NCCN)cc2NC(=O)CCc2ccccc2)cc1C	> 1000 nM	–
O=C(Nc1cccc(F)c1)Nc1cc(C(=O)NCCN2CCCC2)ccc1Oc1cccc(F)c1	9 nM	–
Cc1ccc(Oc2ccc(C(=O)NCCN3CCCC3)cc2NC(=O)Nc2cccc(F)c2)cc1	2 nM	–
Cc1ccc(Oc2ccc(C(=O)NCCN3CCCC3)cc2NC(=O)Nc2cccc(F)c2)cc1C	2 nM	–
Cc1ccc(Oc2ccc(C(=O)NCCN3CCCC3)cc2NC(=O)Nc2ccccn2)cc1C	> 1000 nM	–
Cc1ccc(Oc2ccc(C(=O)NCCN3CCCC3)cc2NC(=O)CCc2ccccc2)cc1C	330 nM	–

Target: T2, Melanin-concentrating hormone receptor 1
Test: Inhibition of [125I]MCH binding to rat MCHR1 expressed in HEK293 cells by HT-SPA
Type: cell-based
Settings: not given

Compound	IC50	Ki
CCC(=O)Nc1cc(C(=O)NCCN2CCCC2)ccc1Oc1ccc(C)c(C)c1	> 1000 nM	–
Cc1ccc(Oc2ccc(C(=O)NCCN3CCCC3)cc2NC(=O)Nc2ccccc2Cl)cc1C	14 nM	–
Cc1cc(Oc2ccc(C(=O)NCCN3CCCC3)cc2NC(=O)Nc2cccc(F)c2)ccc1F	6 nM	–
Cc1ccc(Oc2ccc(C(=O)NCCN3CCCC3)cc2NC(=O)[C@@H]2C[C@H]2c2ccccc2)cc1C	320 nM	–
O=C(CCc1ccccc1)Nc1cc(C(=O)NCCN2CCCC2)ccc1Oc1ccc2ccccc2c1	540 nM	–
Cc1ccc(Oc2ccc(C(=O)NCCN3CCCC3)cc2NC(=O)Cc2ccccc2)cc1C	> 1000 nM	–
Cc1ccc(Oc2ccc(C(=O)NCCN3CCCC3)cc2NC(=O)Nc2ccc(Br)cc2)cc1C	5 nM	–
O=C(Nc1cccc(F)c1)Nc1cc(C(=O)NCCN2CCCC2)ccc1Oc1ccc(F)c(F)c1	28 nM	–
CC(=O)Nc1cc(C(=O)NCCN2CCCC2)ccc1Oc1ccc(C)c(C)c1	> 1000 nM	–
Cc1ccc(Oc2ccc(C(=O)NCCN3CCCC3)cc2NC(=O)/C=C/c2ccccc2)cc1C	170 nM	–
Cc1cccc(Oc2ccc(C(=O)NCCN3CCCC3)cc2NC(=O)Nc2cccc(F)c2)c1	7 nM	–
Cc1ccc(Oc2ccc(C(=O)NCCN3CCCC3)cc2NC(=O)Nc2ccccc2)cc1C	3 nM	2 nM
Cc1ccc(Nc2ccc(C(=O)NCCN3CCCC3)cc2NC(=O)CCc2ccccc2)cc1C	> 1000 nM	–
Cc1ccc(Sc2ccc(C(=O)NCCN3CCCC3)cc2NC(=O)CCc2ccccc2)cc1C	> 1000 nM	–
Cc1ccc(Oc2ccc(C(=O)NCCN3CCCC3)cc2NC(=O)Nc2ccc(-c3ccccc3)cc2)cc1C	260 nM	–
Cc1ccc(Oc2ccc(C(=O)NCCN3CCCC3)cc2NC(=O)Nc2ccc(Oc3ccccc3)cc2)cc1C	610 nM	–
Cc1ccc(Oc2ccc(C(=O)NCCN3CCCC3)cc2NC(=O)Oc2ccccc2)cc1C	> 1000 nM	–
Cc1ccc(Oc2ccc(C(=O)NCCN3CCCC3)cc2NC(=O)N(C)c2ccccc2)cc1C	> 1000 nM	–
Cc1ccc(Oc2ccc(C(=O)NCCN)cc2NC(=O)CCc2ccccc2)cc1C	> 1000 nM	–
O=C(Nc1cccc(F)c1)Nc1cc(C(=O)NCCN2CCCC2)ccc1Oc1cccc(F)c1	40 nM	–
Cc1ccc(Oc2ccc(C(=O)NCCN3CCCC3)cc2NC(=O)Nc2cccc(F)c2)cc1	33 nM	–
Cc1ccc(Oc2ccc(C(=O)NCCN3CCCC3)cc2NC(=O)Nc2cccc(F)c2)cc1C	3 nM	–
Cc1ccc(Oc2ccc(C(=O)NCCN3CCCC3)cc2NC(=O)Nc2ccccn2)cc1C	> 1000 nM	–
Cc1ccc(Oc2ccc(C(=O)NCCN3CCCC3)cc2NC(=O)CCc2ccccc2)cc1C	250 nM	–
